Values of other authors in patent US20210319872A1, “DRUG AND DEVICE COMBINATION PRODUCTS WITH IMPROVED SAFETY AND EFFICACY PROFILES” (priority 2016, published 2021).

Settings: in vivo

**Q.** For `CN1CC[C@]23c4c5ccc(O)c4O[C@H]2[C@@H](O)C=C[C@H]3[C@H]1C5` [morphine, reference compound], which “Drowsiness or Sedation” value is on record?
**A.** Its value is “severe sedation and drowsiness”.

**Q.** What does the source list for `CCOC(=O)[C@H](CCc1ccccc1)N[C@@H](C)C(=O)N1Cc2ccccc2C[C@H]1C(=O)O` [Quinapril (Accupril)]?
**A.** Chest pain: Cardiovascular: Chest pain (2.4%), Hypotension (2.9%); Cough: Respiratory: Cough (2% to 4.3%); Dizziness: Neurologic: Dizziness (3.9% to 7.7%), Headache (1.7% to 6.9%); Fatigue: Other: Fatigue (2.6%); Headache: Neurologic: Dizziness (3.9% to 7.7%), Headache (1.7% to 6.9%); Hypotension: Cardiovascular: Chest pain (2.4%), Hypotension (2.9%); Nausea and vomiting: Gastrointestinal: Nausea and vomiting (1.4% to 2.4%); Serum blood urea nitrogen raised: Renal: Serum blood urea nitrogen raised (2% to 8%), Serum; Serum creatinine raised: creatinine raised (2% to 11%)

**Q.** Which results are given for `COc1ccccc1OCCNCC(O)COc1cccc2[nH]c3ccccc3c12` (stereo not drawn) [carvedilol, Common brand names - Coreg*]?
**A.** Abnormal weight gain: Endocrine metabolic: Abnormal weight gain (10% to 12%),; Atrioventricular block: Cardiovascular: Atrioventricular block (greater than 1% to 3%); Bradyarrhythmia: Cardiovascular: Bradyarrhythmia (3% to 10%), Hypotension (1.8%; Diarrhea: Gastrointestinal: Diarrhea (2% to 12%); Dizziness: Neurologic: Dizziness (6% to 33%); Erectile dysfunction: Reproductive: Erectile dysfunction (13.5%); Fatigue: Other: Fatigue (24%); Hyperglycemia: Hyperglycemia (5% to 12%); Hypotension: Cardiovascular: Bradyarrhythmia (3% to 10%), Hypotension (1.8%

**Q.** Which results are given for `CN1CC[C@]23c4c5ccc(O)c4O[C@H]2C(=O)CC[C@@]3(O)[C@H]1C5` [Oxymorphone, reference compound]?
**A.** Abdominal pain: Gastrointestinal: Abdominal pain (1% to less than 10%),; Bowel obstruction: Gastrointestinal: Bowel obstruction (less than 1%); Constipation: Constipation (4.1% to 27.6%), Nausea (2.9% to 33.1%), Vomiting; Fatigue: Other: Fatigue (1% to less than 10%), Fever (1% to 14.2%); Fever: Other: Fatigue (1% to less than 10%), Fever (1% to 14.2%); Headache: 17%), Headache (4% to 12%), Somnolence (2% to 19%); Hypotension: Cardiovascular: Hypotension (less than 10%); Hypoxia: < 10%); Nausea: Constipation (4.1% to 27.6%), Nausea (2.9% to 33.1%), Vomiting; Pruritus: Dermatologic: Pruritus (less than or equal to 15.2%), Sweating; Serious side effect, Neurologic: Neurologic: Coma; Serious side effect, Respiratory: Respiratory: Respiratory depression; Somnolence: 17%), Headache (4% to 12%), Somnolence (2% to 19%); Sweating symptom: symptom (1% to less than 10%); Vomiting: (less than or equal to 15.6%), Xerostomia (1% to less than 10%); Xerostomia: (less than or equal to 15.6%), Xerostomia (1% to less than 10%)

**Q.** Which results are given for `CCCCNc1cc(C(=O)O)cc(S(N)(=O)=O)c1Oc1ccccc1` [Bumetanide (Bumex)]?
**A.** Azotemia (incidence): Renal: Azotemia (10.6%); Cramp (incidence): Musculoskeletal: Cramp (1.1%); Dizziness (incidence): Neurologic: Dizziness (1.1%), Headache (0.6%); Encephalopathy (incidence): Neurologic: Encephalopathy (0.6%); Headache (incidence): Neurologic: Dizziness (1.1%), Headache (0.6%); Hyperuricemia (incidence): Endocrine metabolic: Hyperuricemia (18.4%), Hypochloremia; Hypochloremia (incidence): (14.9%), Hypokalemia (14.7%); Hypokalemia (incidence): (14.9%), Hypokalemia (14.7%); Hypotension (incidence): Cardiovascular: Hypotension (0.8%); Nausea (incidence): Gastrointestinal: Nausea (0.6%); Serious side effect listed (incidence not given): Dermatologic: Stevens-Johnson syndrome; Thrombocytopenia (incidence): Hematologic: Thrombocytopenia (0.2%)

**Q.** For `CC(C)NCC(O)COc1ccc(CCOCC2CC2)cc1` (stereo not drawn) [Betaxolol (Kerlone)], which Arthralgia is on record?
**A.** Its Arthralgia is “Musculoskeletal: Arthralgia (3.1% to 5.2%), Chest pain (2.4% to”.

**Q.** And the Bradyarrhythmia?
**A.** The Bradyarrhythmia was “Cardiovascular: Bradyarrhythmia (5.8% to 8.1%)”.

**Q.** And the “Burning sensation in eye” value?
**A.** The value was “Ophthalmic: Burning sensation in eye (30%, ophthalmic)”.

**Q.** And the Fatigue?
**A.** The Fatigue was “Other: Fatigue (2.9% to 9.7%)”.

**Q.** And the Indigestion?
**A.** Its Indigestion is “Gastrointestinal: Indigestion (3.9% to 4.7%), Nausea (1.6% to”.

**Q.** And the “Serious side effects, listed without incidence or only as rare” value?
**A.** The value was “Cardiovascular: Atrioventricular block, Myocardial infarction”.

**Q.** With `CC(C)NCC(O)COc1ccc(COCCOC(C)C)cc1` (stereo not drawn) [Bisoprolol (Zebeta)] as the compound, how does the Diarrhea read?
**A.** The Diarrhea was “Gastrointestinal: Diarrhea (2.6% to 3.5%)”.

**Q.** What about the Fatigue of the same compound?
**A.** The Fatigue was “Other: Fatigue (6.6% to 8.2%)”.

**Q.** What about the Headache of the same compound?
**A.** The Headache was “Neurologic: Headache (8.8% to 10.9%)”.

**Q.** And the Rhinitis?
**A.** Its Rhinitis is “Respiratory: Rhinitis (2.9% to 4%), Upper respiratory infection”.

**Q.** What about the Upper respiratory infection of the same compound?
**A.** The Upper respiratory infection was “(4.8% to 5%.)”.

**Q.** With `CCN(C(C)=O)c1cccc(-c2ccnc3c(C#N)cnn23)c1` [Sonata (zaleplon)] as the compound, how does the Anaphylaxis read?
**A.** The Anaphylaxis was “Immunologic: Anaphylaxis (rare)”.

**Q.** And the Angioedema?
**A.** The Angioedema was “Other: Angioedema (rare)”.

**Q.** What about the Depression of the same compound?
**A.** Its Depression is “Depression (at least 1%), Suicidal behavior, Suicidal thoughts”.

**Q.** And the Dizziness?
**A.** Its Dizziness is “Neurologic: Dizziness (7% to 9%), Headache (30% to 42%)”.

**Q.** And the Drug withdrawal seizure?
**A.** Its Drug withdrawal seizure is “Neurologic: Drug withdrawal seizure (rare)”.

**Q.** And the Headache?
**A.** The Headache was “Neurologic: Dizziness (7% to 9%), Headache (30% to 42%)”.

**Q.** For `CCOC(=O)[C@H](CCc1ccccc1)N[C@@H](C)C(=O)N1[C@H](C(=O)O)C[C@H]2CCCC[C@@H]21` [Trandolapril (Mavik)], which Cardiogenic shock is on record?
**A.** The Cardiogenic shock was “Cardiovascular: Cardiogenic shock (3.8%), Intermittent”.

**Q.** And the Cough?
**A.** The Cough was “Respiratory: Cough (1.9% to 35%)”.

**Q.** And the Dizziness?
**A.** Its Dizziness is “Neurologic: Dizziness (1.3% to 23%)”.

**Q.** And the Hyperkalemia?
**A.** Its Hyperkalemia is “Endocrine metabolic: Hyperkalemia (0.3% to 5.3%)”.

**Q.** What about the Hypotension of the same compound?
**A.** The Hypotension was “Cardiovascular: Hypotension (0.6% to 11%), Syncope (5.9%)”.

**Q.** And the Indigestion?
**A.** Its Indigestion is “Gastrointestinal: Indigestion (0.3% to 6.4%)”.

**Q.** What about the Intermittent claudication of the same compound?
**A.** Its Intermittent claudication is “claudication (3.8%)”.

**Q.** What about the “Serum blood urea nitrogen raised” value of the same compound?
**A.** Its value is “Renal: Serum blood urea nitrogen raised (9%)”.

**Q.** And the Syncope?
**A.** The Syncope was “Cardiovascular: Hypotension (0.6% to 11%), Syncope (5.9%)”.

**Q.** Which Acquired night blindness does the source give for `O=C(O)C(O)C(O)C(=O)O.c1cnc2cc3c(cc2n1)[C@@H]1CNC[C@H]3C1` [Chantix] here?
**A.** Its Acquired night blindness is “Ophthalmic: Acquired night blindness (rare), Blurred vision”.

**Q.** What about the Angina of the same compound?
**A.** The Angina was “Cardiovascular: Angina (2.3%), Myocardial infarction (2%)”.

**Q.** And the Constipation?
**A.** The Constipation was “Gastrointestinal: Constipation (5% to 8%), Flatulence (6% to 9%),”.

**Q.** What about the Depression of the same compound?
**A.** The Depression was “Psychiatric: Abnormal behavior, Depression (3.5% to 11%),”.

**Q.** What about the Dream disorder of the same compound?
**A.** Its Dream disorder is “Neurologic: Dream disorder (9% to 13%), Headache (11% to 19%),”.

**Q.** And the Flatulence?
**A.** The Flatulence was “Gastrointestinal: Constipation (5% to 8%), Flatulence (6% to 9%),”.

**Q.** And the Headache?
**A.** The Headache was “Neurologic: Dream disorder (9% to 13%), Headache (11% to 19%),”.

**Q.** What about the Hostile behavior of the same compound?
**A.** The Hostile behavior was “Hostile behavior (2%), Mood disorder (2.3%), Suicidal behavior,”.

**Q.** And the Insomnia?
**A.** Its Insomnia is “Insomnia (10% to 19%)”.

**Q.** And the Mood disorder?
**A.** Its Mood disorder is “Hostile behavior (2%), Mood disorder (2.3%), Suicidal behavior,”.

**Q.** And the Myocardial infarction?
**A.** The Myocardial infarction was “Cardiovascular: Angina (2.3%), Myocardial infarction (2%)”.

**Q.** And the Nausea?
**A.** Its Nausea is “Nausea (30%), Vomiting (5% to 11%)”.

**Q.** And the Retinal vascular disorder?
**A.** The Retinal vascular disorder was “(infrequent), Retinal vascular disorder (rare), Subcapsular cataract”.

**Q.** What about the “Serious side effect, Neurologic” value of the same compound?
**A.** Its value is “Neurologic: Cerebrovascular accident”.

**Q.** What about the “Serious side effect, Psychiatric” value of the same compound?
**A.** Its value is “Psychiatric: Abnormal behavior, Depression (3.5% to 11%),”.

**Q.** What about the Subcapsular cataract of the same compound?
**A.** Its Subcapsular cataract is “(rare), Transient blindness (rare), Visual disturbance (infrequent)”.

**Q.** What about the “Suicidal behavior, and/or ideation” value of the same compound?
**A.** Its value is “and/or ideation (6% to 11%)”.

**Q.** What about the Transient blindness of the same compound?
**A.** Its Transient blindness is “(rare), Transient blindness (rare), Visual disturbance (infrequent)”.

**Q.** What about the Visual disturbance of the same compound?
**A.** The Visual disturbance was “(rare), Transient blindness (rare), Visual disturbance (infrequent)”.

**Q.** What about the Vomiting of the same compound?
**A.** Its Vomiting is “Nausea (30%), Vomiting (5% to 11%)”.
